The values below come from ChEMBL document CHEMBL1129528, “Synthesis and biological evaluation of N-acetylneuraminic acid-based rotavirus inhibitors” (J Med Chem, 1996).

Molecules are shown by their SMILES. pIC50: −log10 of the molar value.

Usually pIC50 stands for the IC50 on a negative log10 scale, so that one unit is a factor of ten. The low end stands for a high IC50, the high end for a low IC50.

What all share (type): functional, organism-based
Assay [1] relates to Rotavirus. The assay is described as follows: Inhibitory activity against SA11 (simian) rotavirus strain.
Assay [2] relates to Rotavirus. As to the kind of experiment: Inhibitory activity against Wa(human) rotavirus strain.
Assay [3] relates to Rotavirus. As to the kind of experiment: Inhibitory activity against NCDV(bovine) rotavirus strain.
Assay [4] deals with Rotavirus. As to the kind of experiment: Inhibitory activity against UK(bovine) rotavirus strain.

`COC1OC(CSC2(C(=O)O)CC(O)C(NC(C)=O)C([C@H](O)[C@H](O)COC(C)=O)O2)C(O)C(O)C1NC(C)=O` (some centres undefined): the pIC50 in the assay with Rotavirus [1] (Rotavirus) was < 1.60; in the assay with Rotavirus [2], < 1.60; with Rotavirus [3] (Rotavirus), 3.46; with Rotavirus [4], 1.90.
Take `COC1OC(CSC2(C(=O)O)CC(O)C(NC(C)=O)C([C@H](O)[C@H](O)COC(C)=O)O2)C(OC(C)=O)C(O)C1O` (some centres undefined): the pIC50 with Rotavirus [1] (Rotavirus) was 1.60; in the assay on Rotavirus [2], < 1.60; with Rotavirus [3] (Rotavirus), 2.82; with Rotavirus [4], 1.90.
Taken in the same sequence, the figures for `COC1OC(CO)C(SC2(C(=O)O)CC(O)C(NC(C)=O)C([C@H](O)[C@H](O)CO)O2)C(O)C1O` (some centres undefined) were 1.60, < 1.60, 2.20 and < 1.60.
Regarding `COC1OC(CSC2(C(=O)O)CC(O)C(NC(C)=O)C([C@H](O)[C@H](O)CO)O2)C(O)C(O)C1O` (stereo in doubt; 14), the figures for the pIC50 in the assay with Rotavirus [1] and with Rotavirus [3] were 1.60 and 2.20, respectively.
Turning to `CO[C@H]1O[C@H](CSC2(C(=O)O)CC(O)C(NC(C)=O)C(C(O)[C@H](O)CO)O2)[C@@H](O)[C@@H]1O` (single isomer, unassigned), the pIC50 was < 1.60 in the assay on Rotavirus [1] (Rotavirus), < 1.60 in the assay on Rotavirus [2], 2.20 in the assay with Rotavirus [3] (Rotavirus) and < 1.60 with Rotavirus [4].
For `COC1OC(CSC2(C(=O)O)CC(O)C(NC(C)=O)C([C@H](O)[C@H](O)CO)O2)C(O)C(O)C1O` (stereo in doubt; 16), the negative-log IC50 (pIC50) is 1.90 in the assay with Rotavirus [1] (Rotavirus), < 1.60 with Rotavirus [2], 2.20 in the assay with Rotavirus [3] (Rotavirus) and < 1.60 with Rotavirus [4].
For the compound `CC(=O)NC1C(O)CC(SC[C@@H](O)C2OC3OC(C)(C)OC3C2O)(C(=O)O)OC1[C@H](O)[C@H](O)CO` (some centres undefined), the pIC50 is 2.20 in the assay with Rotavirus [1] (Rotavirus), < 1.60 in the assay on Rotavirus [2], 2.20 in the assay on Rotavirus [3] (Rotavirus) and 1.60 in the assay with Rotavirus [4].
On to `COC1OC(CSC2(C(=O)O)CC(O)C(NC(C)=O)C([C@H](O)[C@H](O)CO)O2)C(O)C(O)C1NC(C)=O` (some centres undefined), for which the pIC50 in the assay with Rotavirus [1] (Rotavirus) was 1.60; in the assay on Rotavirus [2] it was < 1.60; in the assay on Rotavirus [3] (Rotavirus) it was 2.20; with Rotavirus [4], < 1.60.
As for `COC1OC(CSC2(C(=O)O)CC(O)C(NC(C)=O)C([C@H](O)[C@H](O)COC(C)=O)O2)C(O)C(O)C1O` (some centres undefined), the pIC50 was < 1.60 in the assay on Rotavirus [1] (Rotavirus), < 1.60 in the assay with Rotavirus [2], 2.82 in the assay on Rotavirus [3] (Rotavirus) and 1.60 in the assay with Rotavirus [4].
